According to patent US11667675B2, “MASP inhibitory compounds and uses thereof” (Bayer Aktiengesellschaft, priority 2019, dated 2023):
Read-outs that look alike come from different tables or passages of the source. Bridge positions count the residues as written; N and C are the ends. Square brackets hold non-standard residues; d marks the D form. Peptide text beside a SMILES is read from it. Pro(4-spirocPr) = O=C(O)[C@@H]1CC2(CC2)CN1; Oic = O=C(O)[C@@H]1C[C@@H]2CCCC[C@@H]2N1; tBuAla = CC(C)(C)C[C@H](N)C(=O)O; Pen = CC(C)(S)[C@H](N)C(=O)O; ΔPro = O=C(O)[C@@H]1C=CCN1; Sar = CNCC(=O)O

Legend:
Human C3-[…] = test: C3 deposition assay, human serum on mannan-coated plates; type: biochemical
Procedure: 3. C3 Deposition Assay (Human, Rat, Mouse, Dog, Mini-Pig)
The C3 deposition assay was conducted essentially as described (reference). Multi well plates (Greiner-Nunc 384 Maxi Sorp #464718) were coated over night with Mannan from Saccharomyces cerevisiae (Sigma M7504, 10 μg/mL in 0.05 M carbonate-bicarbonate buffer, pH 9.6) at 4° C. Wells were washed three times with TBS and subsequently incubated for 2 hours with 50 μL of 1% bovine serum albumin (BSA) in Tris-buffered saline (TBS) at 37° C. in order to block non-specific binding. After this step and each of the following incubation steps wells were washed three times with C3 wash buffer (TBS; 0.05% Tween 20; 5 mM CaCl2). […] When appropriately developed the color reaction was stopped by addition of 25 μL of stop solution (Sigma S5814) and quantified on a photometer by measuring absorption at a wavelength of 450 nm. Antibodies were diluted in C3 wash buffer supplemented with 0.5% BSA.

human MASP1 = target: T1, human MASP1 (Homo sapiens, UniProt P48740); test: Biochemical human MASP1 assay (FRET substrate); conditions: average IC50
T1 construct: Ig-kappa secretion signal (N, cleaved yes); made in house; host or cells: HEK293 (ATCC No. CRL-1573)
T1 sequence (P48740 297-448): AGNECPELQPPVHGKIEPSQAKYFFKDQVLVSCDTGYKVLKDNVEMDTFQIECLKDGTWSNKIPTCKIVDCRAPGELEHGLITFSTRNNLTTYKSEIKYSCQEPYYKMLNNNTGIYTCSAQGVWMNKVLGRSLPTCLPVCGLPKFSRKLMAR
T1 sequence (P48740 449-699): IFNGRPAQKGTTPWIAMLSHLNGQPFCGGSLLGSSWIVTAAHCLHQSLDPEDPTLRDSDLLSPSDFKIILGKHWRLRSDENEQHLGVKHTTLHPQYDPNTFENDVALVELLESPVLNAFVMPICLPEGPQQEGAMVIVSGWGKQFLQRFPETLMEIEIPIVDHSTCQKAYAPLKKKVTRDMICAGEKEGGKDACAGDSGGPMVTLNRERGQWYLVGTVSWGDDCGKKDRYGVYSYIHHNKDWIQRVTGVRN
Excerpt: (§1) 2.1 Recombinant Expression and Protein Production of Recombinant Human MASP1 and MASP2 Active Proteases.
(§2) The MASP1 or MASP2 expression vectors were transfected into the HEK293 (ATCC No. CRL-1573) cell line using Lipofectamine LTX® Reagent (Thermo-Fischer), as described by the manufacturer. […] The MASP1 and MASP2 proteins were purified from the conditioned media by affinity chromatography on Ni-NTA Superflow resin (Qiagen) as described by the manufacturer.
2.2 Biochemical Human MASP1 Assay
(§3) Recombinant human MASP1 enzyme produced in the HEK 293 cells was diluted in the reaction buffer (50 mM HEPES pH 8,0; 100 mM NaCl; 0.01% CHAPS; 0.5 mM Gluthathione) to the concentration of 20 nM and 25 μl was transferred into each single well of 384-well white microtiter plate (Greiner Bio One 781075). 1 μl of the inhibitor compound solution (dissolved in DMSO, at the corresponding concentration) or pure DMSO as a control was added to the same wells. […] The microtiter plate was incubated for 60-120 min at the temperature of 32 C. The increase of fluorescence intensity was measured in appropriate fluorescence plate reader (e.g. TECAN Ultra) using excitation wavelength of 320 nm and emission wavelength of 420 nm. IC50 values were calculated from percentage of inhibition of human MASP1 activity as a function of test compound concentration.

human MASP2 = target: T2, human MASP2 (Homo sapiens, UniProt O00187); test: Biochemical human MASP2 assay (FRET substrate); conditions: average IC50
T2 construct: Ig-kappa secretion signal (N, cleaved yes); made in house; host or cells: HEK293 (ATCC No. CRL-1573)
T2 sequence (O00187 297-444): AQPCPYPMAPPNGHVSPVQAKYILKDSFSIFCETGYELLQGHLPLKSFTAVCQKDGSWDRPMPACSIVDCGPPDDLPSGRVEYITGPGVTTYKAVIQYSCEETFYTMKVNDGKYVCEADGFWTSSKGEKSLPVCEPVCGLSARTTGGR
T2 sequence (O00187 445-686): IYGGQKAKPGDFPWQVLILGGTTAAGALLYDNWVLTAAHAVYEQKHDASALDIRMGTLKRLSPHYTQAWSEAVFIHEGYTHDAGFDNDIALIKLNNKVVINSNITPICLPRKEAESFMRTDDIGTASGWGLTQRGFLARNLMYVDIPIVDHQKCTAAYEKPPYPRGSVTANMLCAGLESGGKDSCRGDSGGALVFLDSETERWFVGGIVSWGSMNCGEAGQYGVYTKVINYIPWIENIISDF
Excerpt: as §1, §2
2.3 Biochemical Human MASP2 Assay
as §3, with “MASP2” for “MASP1”, “340” for “320”, “490” for “420”

rat MASP1 = target: T3, rat MASP1 (Rattus norvegicus, UniProt Q8CHN8); test: Biochemical rat MASP1 assay (FRET substrate); conditions: average IC50; recombinant rat MASP1, FRET substrate
T3 construct: Ig-kappa secretion signal (N, cleaved yes); made in house; host or cells: HEK293 (ATCC No. CRL-1573)
T3 sequence (Q8CHN8 302-453 limits assumed): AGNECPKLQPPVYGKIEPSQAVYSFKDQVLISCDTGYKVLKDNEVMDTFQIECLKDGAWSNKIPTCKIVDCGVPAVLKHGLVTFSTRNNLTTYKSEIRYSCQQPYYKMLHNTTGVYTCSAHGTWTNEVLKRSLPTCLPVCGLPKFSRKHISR
T3 sequence (Q8CHN8 454-704 limits assumed): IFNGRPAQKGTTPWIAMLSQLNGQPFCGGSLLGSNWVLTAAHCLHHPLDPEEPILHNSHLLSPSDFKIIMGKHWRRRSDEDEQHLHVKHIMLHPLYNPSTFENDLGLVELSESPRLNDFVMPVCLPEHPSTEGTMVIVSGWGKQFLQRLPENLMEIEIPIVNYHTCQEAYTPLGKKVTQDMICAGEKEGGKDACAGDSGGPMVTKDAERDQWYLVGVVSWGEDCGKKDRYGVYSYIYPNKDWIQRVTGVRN
Excerpt: 4. Biochemical Rat MASP-1 and MASP-2 Assay
4.1 Recombinant Expression and Protein Production of Recombinant Human and Rat MASP1 and MASP2 Active Proteases.
A truncated cDNA sequence of rat MASP1 encoding the fragment corresponding to the amino acids 302-704 with an C-terminal His Tag and N-terminal Ig-kappa secretion signal (SEQ ID No: 4) was subcloned into the mammalian expression vector pcDNA3.1 (Invitrogen).
The MASP1 or MASP2 expression vectors were transfected into the HEK293 (ATCC No. CRL-1573) cell line using Lipofectamine LTX® Reagent (Thermo-Fischer), as described by the manufacturer. The mature form of the recombinant rat MASP1 and MASP2 proteases were secreted into the culture medium. The MASP1 and MASP2 proteins were purified from the conditioned media by affinity chromatography on Ni-NTA Superflow resin (Qiagen) as described by the manufacturer.
4.2 Biochemical Rat MASP1 Assay.
Recombinant rat MASP1 enzyme produced in the HEK 293 cells was diluted in the reaction buffer (50 mM HEPES pH 8,0; 100 mM NaCl; 0.01% CHAPS; 0.5 mM Gluthathione) to the concentration of 4 nM and 25 μl was transferred into each single well of 384-well white microtiter plate (Greiner Bio One 781075). 1 μl of the inhibitor compound solution (dissolved in DMSO, at the corresponding concentration) or pure DMSO as a control was added to the same wells. The enzymatic reaction was initiated by addition of 25 μl of 40 μM solution of the FRET substrate Dabcyl-[…]-Glu(Edans)-NH2 (SEQ ID NO: 8); (Dabcyl—4-((4-(dimethylamino)phenyl)azo)benzoic acid; Edans—5-[(2-Aminoethyl) amino]naphthalene-1-sulfonyl; custom synthesis by Jerini Peptide Technologies, Berlin) in the reaction buffer. The microtiter plate was incubated for 60-120 min at the temperature of 32 C. The increase of fluorescence intensity was measured in appropriate fluorescence plate reader (e.g. TECAN Ultra) using excitation wavelength of 340 nm and emission wavelength of 490 nm. IC50 values were calculated from percentage of inhibition of rat […] activity as a function of test compound concentration.

[1] = average IC50, read-out: Human C3-DEPOSITION SERUM IC50

| Molecule | IC50 (Human C3-[…]; [1]) [nM] | IC50 (human MASP1) [nM] | IC50 (human MASP2) [nM] | IC50 (rat MASP1) [nM] | IC50 (Human C3-[…]; average IC50, read-out: Human C3-[…] IC50) [nM] |
| --- | --- | --- | --- | --- | --- |
| IC+SRSLP-(Oic)-I-(Pen)+IPD-OH [Example 347] | 151 |  |  |  |  |
| CC[C@H](C)[C@H](NC(=O)[C@H](C)N)C(=O)N[C@H]1CSSC(C)(C)[C@@H](C(=O)N[C@H](C(=O)N2CCC[C@H]2C(=O)N[C@@H](CC(=O)O)C(N)=O)[C@@H](C)CC)NC(=O)[C@H]([C@@H](C)CC)NC(=O)[C@@H]2CC3(CC3)CN2C(=O)[C@@H]2CCCN2C(=O)[C@H](CC(C)(C)C)NC(=O)[C@H](CO)NC(=O)[C@H](CCCNC(=N)N)NC(=O)[C@H](CO)NC1=O [Example 45, AI-C+SRS-((tBu)A)-P-((6S)-5-Azaspiro[2.4]heptane-6-carboxylic acid)-I(Pen)+IPD-NH2] (H-AICSRS[tBuAla]P[Pro(4-spirocPr)]I[Pen]IPD-NH2; disulfide 3-11) | 18.6 | 1.83 | 24.5 | 40 |  |
| CC[C@H](C)[C@H](NC(=O)[C@@H]1CSSC[C@H](NC(=O)[C@@H](NC(=O)[C@@H](N)C2CCOCC2)[C@@H](C)CC)C(=O)N[C@@H](CO)C(=O)N[C@@H](CCCNC(=N)N)C(=O)N[C@@H](CO)C(=O)N[C@@H](CC(C)C)C(=O)N2CCC[C@H]2C(=O)N2[C@@H](C[C@@H]3CCCC[C@@H]32)C(=O)N[C@@H]([C@@H](C)CC)C(=O)N1)C(=O)O (single isomer, unassigned) [Example 184] |  | 4.7 | 200 |  | 43 |
| AIC+SRSLP-(Oic)-I-(Pen)+IPN-OH [Example 418] | 53.9 |  |  |  |  |
| CC[C@H](C)[C@H](NC(=O)CNC)C(=O)N[C@H]1CSSC(C)(C)[C@@H](C(=O)N[C@H](C(=O)N2CCC[C@H]2C(N)=O)[C@@H](C)CC)NC(=O)[C@H]([C@@H](C)CC)NC(=O)[C@@H]2C[C@@H]3CCCC[C@@H]3N2C(=O)[C@@H]2CCCN2C(=O)[C@H](CC(C)C)NC(=O)[C@H](CO)NC(=O)[C@H](CCCNC(=N)N)NC(=O)[C@H](CO)NC1=O [Example 376] (H-[Sar]ICSRSLP[Oic]I[Pen]IP-NH2; disulfide 3-11) | 13.8 | 1.1 | 35 |  |  |
| CC[C@H](C)[C@H](NC(=O)[C@H](C)N)C(=O)N[C@H]1CSSC(C)(C)[C@@H](C(=O)N[C@H](C(=O)N2CCC[C@H]2C(=O)N[C@@H](CC(=O)O)C(=O)O)[C@@H](C)CC)NC(=O)[C@H]([C@@H](C)CC)NC(=O)[C@@H]2C[C@@H]3CCCC[C@@H]3N2C(=O)[C@@H]2C=CCN2C(=O)[C@H](CC(C)C)NC(=O)[C@H](CO)NC(=O)[C@H](CCCNC(=N)N)NC(=O)[C@H](CO)NC1=O [Example 237] (H-AICSRSL[ΔPro][Oic]I[Pen]IPD-OH; disulfide 3-11) | 14.7 | 9.3 | 64 |  |  |
| ((N-Me)G)-IC+SRSLP-(Oic)-I-(Pen)+IPD-NH2 [Example 165] | 36 |  |  |  |  |
| ((N-Me)G)-IC+SRSLP-(Oic)-I-(Pen)+I-((5-Azaspiro[2.4]heptane-1-carboxylic acid)OH [Example 164] | 81.6 |  |  |  |  |
| AIC+SRS-((tBu)A)-PPI-((N-Me)C)+IPD-NH2 (HCl Salt) [Example 30] | 36.1 |  |  |  |  |
| CC[C@H](C)[C@@H]1NC(=O)[C@@H]2CCCN2C(=O)[C@@H]2CCCN2C(=O)[C@H](CC(C)(C)C)NC(=O)[C@H](CO)NC(=O)[C@H](CCCNC(=N)N)NC(=O)[C@H](CO)NC(=O)[C@@H](NC(=O)[C@@H](NC(=O)C(C)(C)CN)[C@@H](C)CC)CSSC(C)(C)[C@@H](C(=O)N[C@H](C(=O)N2CCC[C@H]2C(=O)N[C@@H](CC(=O)O)C(N)=O)[C@@H](C)CC)NC1=O [Example 166, (3-Amino-2,2-dimethylpropionic acid)-IC+SRS-((tBu)A)-PPI-(Pen)+IPD-NH2] | 33.4 | 4.2 |  |  |  |
| N-[(5aS,11S,14S,17S,20S,23R,28R,31S,33aS)-31-[(2S)-butan-2-yl]-17-(3-carbamimidamidopropyl)-11-(2,2-dimethylpropyl)-14,20-bis(hydroxymethyl)-27,27-dimethyl-23-({N-[(morpholin-4-yl)acetyl]-L-isoleucyl}amino)-5,10,13,16,19,22,30,33-octaoxooctacosahydro-1H,5H,10H-dipyrrolo[2,1-j:2′,1′][1,2,5,8,11,14,17,20,23,26]dithiaoctaazacyclononacosine-28-carbonyl]-L-isoleucyl-L-prolyl-L-alpha-asparagine [Example 283] | 69.8 |  |  |  |  |
| (2-Hydroxyacetyl)-IC+SRS-((tBu)A)-PPI-(Pen)+IPD-NH2 [Example 300] | 59.8 |  |  |  |  |
